The values that follow come from patent publication US20260083750A1, “SMALL MOLECULE INHIBITORS OF KRAS PROTEINS” (MERCK SHARP & DOHME LLC, priority 2022, published 2026).

Assay [1] concerns SW620 cells (homozygous KRAS-G12V activating mutation). Put plainly: Cellular phospho-ERK assay in G12V cell line. Format: cell-based. The note with it: Homo sapiens, SW-620, 2 hours compound incubation, ratio of p-ERK vs. total ERK, read-out: SW620 pERK IC50. On the procedure:
Procedure for Cellular Phospho-ERK Assay in G12D and G12V Cell Lines
PANC08.13 cells (ATCC® CRL-2551™), containing homozygous KRAS-G12D activating mutation, were cultured in growth medium made of RPMI1640-GlutaMAX™—I (ThermoFisher Scientific 61870) containing 15% heat inactivated fetal bovine serum (ThermoFisher Scientific 10091148)). SW620 cells (ATCC® […]), containing homozygous KRAS-G12V activating mutation, were cultured in growth medium that contains RPMI 1640-GlutaMAX™—I (ThermoFisher Scientific 61870) containing 10% heat inactivated fetal bovine serum (ThermoFisher Scientific 10091148).
Cells for the assay were harvested in growth medium after TrypLE (ThermoFisher scientific 12604021) digestion and were seeded in a 384-well collagen coated cell culture plate (Corning 356702) at a density of 10,000-15,000 cells/20 uL/well, and incubated at 37° C., 5% CO2 overnight. The compound (with 10 mM stock concentration) dose-response titrations were prepared [30 μM final ERK detection assay concentration and 1:3 dilutions, 10-point dose response] and appropriate amounts (270 nL) of test compounds were dispensed in a 384-well intermediate plate using an Echo 550 liquid handler. 30 uL/well of RPMI medium 1640-GlutaMAX™—I was added to the intermediate plate and the contents of the intermediate plate (10 uL/well) were then transferred to the 384-well collagen coated cell culture plate, which was incubated at 37° C., 5% CO2 for 2 hours. After removal of medium from the collagen coated cell culture plate, cells were lysed in lysis buffer from Alpha SureFire® Ultra™ Multiplex p-ERK and total ERK assay kit (PerkinElmer MPSU-PTERK) containing Halt™ Protease and Phosphatase inhibitor cocktail (ThermoFisher Scientific 78446) at room temperature with constant shaking at 300 rpm for 30 minutes. The cell lysates were then transferred to an OptiPlate-384 plate (PerkinElmer 6005620), and the phosphorylation of ERK (p-ERK) and total ERK levels were detected by Alpha SureFire® Ultra™ Multiplex p-EEK kit and total ERK assay kit (PerkinElmer MPSU-PTERK) following the manufacturer's protocol. Assay plates were read on a EnVision Multimode Plate Reader (PerkinElmer), and the ratio of p-ERK vs. total ERK in each well was used as the final readout. Dose response curves were analyzed using a 4-parameter logistic model to calculate IC50 values using Spotfire software.

Assay [2] relates to PANC08.13 cells (homozygous KRAS-G12D activating mutation). The experiment in a line: Cellular phospho-ERK assay in G12D cell line. Type of assay: cell-based. The note with it: Homo sapiens, PANC-08-13, 2 hours compound incubation, ratio of p-ERK vs. total ERK, read-out: PANC 0813 pERK IC50. A digest of the protocol: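 Cells (10,000-15,000/well) were seeded overnight, then treated for 2 h at 37 °C with a 10-point 1:3 titration from 30 μM final. Lysates were assayed by AlphaLISA SureFire Ultra multiplex, with the p-ERK/total-ERK ratio as read-out; IC50 came from a 4-parameter logistic fit.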

The target of another assay is NRAS (Homo sapiens, UniProt P01111). Put plainly: SOS-catalyzed nucleotide exchange assay (Procedure A, TR-FRET). Format: biochemical. The note with it: 60 min preincubation, SOS + GTP, read-out: NRAS GNE IC50. A digest of the protocol: (§1)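 Biotinylated WT-sequence HRAS or NRAS (1.25 nM final) loaded with Bodipy-GDP plus Tb-streptavidin, preincubated 60 min with compound (10-point, 3-fold). Exchange started with human SOS (40 nM) and 3 mM GTP, 60 min at room temperature, pH 7.5 Mg buffer. TR-FRET 520/495 ratio normalised to DMSO and saturating inhibitor, four-parameter fit.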
Sequence of NRAS (P01111 with tags, fused parts or gaps): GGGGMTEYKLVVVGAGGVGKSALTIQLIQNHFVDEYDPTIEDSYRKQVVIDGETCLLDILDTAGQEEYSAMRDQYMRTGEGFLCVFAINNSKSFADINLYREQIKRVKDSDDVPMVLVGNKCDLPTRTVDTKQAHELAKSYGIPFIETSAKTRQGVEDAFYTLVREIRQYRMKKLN
(In general: TR-FRET usually uses a lanthanide donor and a delayed reading to cut background.)

For a further assay, the target named is HRAS (Homo sapiens, UniProt P01112). The assay is described as above. Conditions: 60 min preincubation, SOS + GTP, read-out: HRAS GNE IC50. Type of assay: biochemical. A digest of the protocol:
as §1

The target of the next assay is T1, KRAS-G12D (Homo sapiens, UniProt P01116, G12D).
T1 construct: N-terminal biotin-acceptor peptide […]
T1 sequence (P01116 with tags, fused parts or gaps isoform P01116-2 G12D): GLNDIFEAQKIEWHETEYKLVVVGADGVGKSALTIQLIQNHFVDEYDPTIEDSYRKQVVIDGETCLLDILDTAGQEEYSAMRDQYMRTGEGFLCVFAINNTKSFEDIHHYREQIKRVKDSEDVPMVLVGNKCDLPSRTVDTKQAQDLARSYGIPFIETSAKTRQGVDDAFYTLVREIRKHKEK
Described as above. Type of assay: biochemical. The note with it: 60 min preincubation, SOS + GTP, read-out: KRAS G12D GNE IC50. A digest of the protocol:
(§2)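 Preformed biotinylated RAS–Bodipy-GDP/Tb-streptavidin complex preincubated with compound 60 min at room temperature, then SOS plus GTP (3 mM final) added. Exchange times: G13D 30 min, G12C/D 60 min, G12V 90 min. Final RAS/SOS: G12C 3 nM/40 nM, G12D 1 nM/40 nM, G12V 1.25 nM/160 nM, G13D 1.25 nM/0 nM. TR-FRET 520/495 ratio, four-parameter fit.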

Assay [3] concerns the target T2, KRAS-G12C (C51S/C80L/C118S) (Homo sapiens, UniProt P01116, C118S/C51S/C80L/G12C).
T2 construct: N-terminal biotin-acceptor peptide […]
The assay is described as above. Type of assay: biochemical. Conditions: 60 min preincubation, SOS + GTP, read-out: KRAS G12C GNE IC50. In outline:
as §2

For the next assay, the target named is T3, KRAS-G12V (Homo sapiens, UniProt P01116, G12V).
T3 construct: N-terminal biotin-acceptor peptide […]
T3 sequence (P01116 with tags, fused parts or gaps isoform P01116-2 G12V): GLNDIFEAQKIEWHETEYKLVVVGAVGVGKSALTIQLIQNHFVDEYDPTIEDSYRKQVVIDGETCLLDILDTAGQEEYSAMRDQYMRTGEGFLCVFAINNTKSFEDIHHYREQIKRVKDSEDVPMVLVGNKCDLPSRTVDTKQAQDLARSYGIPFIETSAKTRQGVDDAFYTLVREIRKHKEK
Described as above. Conditions: 60 min preincubation, SOS + GTP, read-out: KRAS G12V GNE IC50. Format: biochemical. A digest of the protocol: as §2

The target in another assay is T4, KRAS-G13D (Homo sapiens, UniProt P01116, G13D).
T4 construct: N-terminal biotin-acceptor peptide […]
T4 sequence (P01116 with tags, fused parts or gaps isoform P01116-2 G13D): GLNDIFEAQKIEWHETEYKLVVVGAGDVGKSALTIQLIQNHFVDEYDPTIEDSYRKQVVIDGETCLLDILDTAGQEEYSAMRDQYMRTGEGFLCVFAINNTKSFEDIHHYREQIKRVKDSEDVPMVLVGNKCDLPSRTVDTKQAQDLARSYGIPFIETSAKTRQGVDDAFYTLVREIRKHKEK
The assay is described as above. Type of assay: biochemical. The note with it: 60 min preincubation, GTP, read-out: KRAS G13D GNE IC50. A digest of the protocol: as §2

One may read the IC50 as the concentration at which inhibition is half-maximal.

T2 sequence (P01116 with tags, fused parts or gaps isoform P01116-2 G12C/C51S/C80L/C118S): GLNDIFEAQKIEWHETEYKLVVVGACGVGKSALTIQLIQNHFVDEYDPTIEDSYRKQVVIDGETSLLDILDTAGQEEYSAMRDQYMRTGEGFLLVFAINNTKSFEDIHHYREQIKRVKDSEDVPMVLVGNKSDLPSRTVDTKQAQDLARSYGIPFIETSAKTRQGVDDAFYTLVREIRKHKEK
Sequence of HRAS (P01112 with tags, fused parts or gaps): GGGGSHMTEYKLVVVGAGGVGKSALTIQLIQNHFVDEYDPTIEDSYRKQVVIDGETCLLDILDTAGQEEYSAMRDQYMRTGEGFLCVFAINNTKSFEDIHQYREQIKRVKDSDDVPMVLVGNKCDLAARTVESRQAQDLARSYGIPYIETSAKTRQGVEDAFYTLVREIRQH

On to `CN(C)C[C@@]1(COc2nc(N3CCCOCC3)c3cc(Cl)c(-c4ccc(F)c5sc(N)c(C#N)c45)c(F)c3n2)CC1(F)F` [Ex. 24, 2-amino-4-(6-chloro-2-(((R)-1-((dimethylamino)methyl)-2,2-difluorocyclopropyl)methoxy)-8-fluoro-4-(1,4-oxazepan-4-yl)quinazolin-7-yl)-7-fluorobenzo[b]thiophene-3-carbonitrile], for which the concentration for half-maximal inhibition (IC50) in assay [1] was 0.0931 µM; in assay [2], 0.233 µM; on NRAS, more than 11.1 µM; on HRAS it was more than 11.1 µM; on KRAS-G12D, 0.0518 µM; in assay [3] it was 0.0304 µM. Also, the half-inhibitory concentration (IC50) on KRAS-G12V is 0.00952 µM; at KRAS-G13D, 0.0288 µM.

With `Cc1cc(N)nc(-c2c(Cl)cc3c(N4CCCCOCC4)nc(OC[C@@]45CCCN4C[C@H](F)C5)nc3c2F)c1C(F)(F)F` [Ex. 39, 6-(6-chloro-8-fluoro-2-(((2R,7aS)-2-fluorotetrahydro-1H-pyrrolizin-7a(5H)-yl)methoxy)-4-(1,4-oxazocan-4-yl)quinazolin-7-yl)-4-methyl-5-(trifluoromethyl)pyridin-2-amine], the concentration for half-maximal inhibition (IC50) in assay [1] was 0.422 µM; in assay [2] it was 1.32 µM; at NRAS it was more than 11.1 µM; on HRAS, more than 11.1 µM; on KRAS-G12D, 0.515 µM; in assay [3], 0.0631 µM. The IC50 at KRAS-G12V came to 0.0322 µM; on KRAS-G13D, 0.145 µM.

With `Cc1cc2[nH]ncc2c(-c2c(F)cc3c(N4CCCOCC4)nc(OC[C@@]45CCCN4C[C@H](F)C5)nc3c2F)c1C(F)(F)F` [Ex. 44, 4-(6,8-difluoro-2-(((2R,7aS)-2-fluorotetrahydro-1H-pyrrolizin-7a(5H)-yl)methoxy)-7-(6-methyl-5-(trifluoromethyl)-1H-indazol-4-yl)quinazolin-4-yl)-1,4-oxazepane], the half-maximal inhibitory concentration (IC50) in assay [1] was 0.901 µM; in assay [2] it was 1.3 µM; at NRAS, more than 11.1 µM; at HRAS it was more than 11.1 µM; at KRAS-G12D, 0.505 µM; in assay [3], 0.0963 µM. For the same molecule, the values for the IC50 at KRAS-G12V and at KRAS-G13D were 0.235 µM and 0.365 µM, respectively.

Take `CC1COCCCN1c1nc(OC[C@@]23CCCN2C[C@H](F)C3)nc2c(F)c(-c3ccc(F)c4sc(N)c(C#N)c34)c(Cl)cc12` (stereo partly drawn) [compound 5, 2-amino-4-(6-chloro-8-fluoro-2-(((2R,7aS)-2-fluorotetrahydro-1H-pyrrolizin-7a(5H)-yl)methoxy)-4-(3-methyl-1,4-oxazepan-4-yl)quinazolin-7-yl)-7-fluorobenzo[b]thio-phene-3-carbonitrile]: the concentration for half-maximal inhibition (IC50) in assay [1] is 0.12 µM; in assay [2], 0.123 µM; on NRAS, more than 11.1 µM; at HRAS, more than 11.1 µM; at KRAS-G12D, 0.0152 µM; in assay [3] it was 0.018 µM. Also, the concentration for half-maximal inhibition (IC50) at KRAS-G12V came to 0.00615 µM; at KRAS-G13D, 0.0134 µM.

As to `C[C@@H]1CCOCCN1c1nc(OC[C@@]23CCCN2C[C@H](F)C3)nc2c(F)c(-c3ccc(F)c4sc(N)c(C#N)c34)c(Cl)cc12` [compound 7, 2-amino-4-(6-chloro-8-fluoro-2-(((2R,7aS)-2-fluorotetrahydro-1H-pyrrolizin-7a(5H)-yl)methoxy)-4-((R)-5-methyl-1,4-oxazepan-4-yl)quinazolin-7-yl)-7-fluorobenzo[b]thio-phene-3-carbonitrile], the 50% inhibitory concentration (IC50) in assay [1] was 0.0674 µM; in assay [2], 0.192 µM; at NRAS, more than 11.1 µM; at HRAS, more than 11.1 µM; at KRAS-G12D, 0.00918 µM; in assay [3] it was 0.0131 µM. Besides, the 50% inhibitory concentration (IC50) at KRAS-G12V amounted to 0.006 µM; on KRAS-G13D, 0.00855 µM.

For `CC1COCCN(c2nc(OC[C@@]34CCCN3C[C@H](F)C4)nc3c(F)c(-c4ccc(F)c5sc(N)c(C#N)c45)c(Cl)cc23)C1` (stereo partly drawn) [compound 8, 2-amino-4-(6-chloro-8-fluoro-2-(((2R,7aS)-2-fluorotetrahydro-1H-pyrrolizin-7a(5H)-yl)methoxy)-4-(6-methyl-1,4-oxazepan-4-yl)quinazolin-7-yl)-7-fluorobenzo[b]thio-phene-3-carbonitrile], the IC50 in assay [1] was 0.104 µM; in assay [2] it was 0.138 µM; at NRAS, more than 11.1 µM; on HRAS, more than 11.1 µM; on KRAS-G12D, 0.00992 µM; in assay [3] it was 0.0208 µM. Further, the results for the half-inhibitory concentration (IC50) on KRAS-G12V and on KRAS-G13D were 0.00759 µM and 0.0128 µM, respectively.

Regarding `CC1CN(c2nc(OC[C@@]34CCCN3C[C@H](F)C4)nc3c(F)c(-c4ccc(F)c5sc(N)c(C#N)c45)c(Cl)cc23)CCCO1` (stereo partly drawn) [compound 9, 2-amino-4-(6-chloro-8-fluoro-2-(((2R,7aS)-2-fluorotetrahydro-1H-pyrrolizin-7a(5H)-yl)methoxy)-4-(2-methyl-1,4-oxazepan-4-yl)quinazolin-7-yl)-7-fluorobenzo[b]thio-phene-3-carbonitrile], the 50% inhibitory concentration (IC50) is 0.101 µM in assay [1]; 0.155 µM in assay [2]; more than 11.1 µM at NRAS; more than 11.1 µM at HRAS; 0.0244 µM on KRAS-G12D; 0.0231 µM in assay [3]. Also, the IC50 on KRAS-G12V amounted to 0.00617 µM; at KRAS-G13D, 0.00874 µM.

For `CC1CCN(c2nc(OC[C@@]34CCCN3C[C@H](F)C4)nc3c(F)c(-c4ccc(F)c5sc(N)c(C#N)c45)c(Cl)cc23)CCO1` (stereo partly drawn) [compound 10, 2-amino-4-(6-chloro-8-fluoro-2-(((2R,7aS)-2-fluorotetrahydro-1H-pyrrolizin-7a(5H)-yl)methoxy)-4-(7-methyl-1,4-oxazepan-4-yl)quinazolin-7-yl)-7-fluorobenzo[b]thio-phene-3-carbonitrile], the IC50 in assay [1] is 0.538 µM; in assay [2], 2.6 µM; at NRAS, more than 11.1 µM; on HRAS, more than 11.1 µM; on KRAS-G12D, 0.7 µM; in assay [3], 0.0473 µM. Also, the IC50 on KRAS-G12V worked out at 0.0417 µM; at KRAS-G13D, 0.11 µM.

For the molecule `N#Cc1c(N)sc2c(F)ccc(-c3c(Cl)cc4c(N5CCOCC(F)C5)nc(OC[C@@]56CCCN5C[C@H](F)C6)nc4c3F)c12` (stereo partly drawn) [compound 11, 2-amino-4-(6-chloro-8-fluoro-4-(6-fluoro-1,4-oxazepan-4-yl)-2-(((2R,7aS)-2-fluorotetrahydro-1H-pyrrolizin-7a(5H)-yl)methoxy)quinazo-lin-7-yl)-7-fluorobenzo[b]thio-phene-3-carbonitrile], the concentration for half-maximal inhibition (IC50) in assay [1] is 0.0219 µM; in assay [2] it was 0.0399 µM; at NRAS, more than 11.1 µM; at HRAS, more than 11.1 µM; on KRAS-G12D, 0.00827 µM; in assay [3] it was 0.0182 µM. The half-maximal inhibitory concentration (IC50) came to 0.0064 µM at KRAS-G12V and 0.00685 µM on KRAS-G13D.
